# Source: patent US4820821A, “Novel pyridazinone-imines and their physiologically tolerated addition salts with acids, their preparation and therapeutic agents containing these compounds” (BASF Aktiengesellschaft, priority 1981, dated 1989)
# Where a name gives a salt, the structure may show the parent alone. Read-outs that look alike come from different tables or passages of the source.
# Key:
# [1] = system: reserpine-induced hypothermia; assay: Antidepressive action: reserpine antagonism, inhibition of reserpine-induced hypothermia of the mouse; type: in vivo, male Swiss mice; conditions: for R.A. (relative activity), reserpine antagonism: amezinium = 1.00, oral; for ED 50% (dose which inhibits the reserpine-induced hypothermia of the mouse by 50%) / ED50: dose based on the base; for ED50: Mus musculus, read-out: ED 50% (dose which inhibits the reserpine-induced hypothermia of the mouse by 50%)
# Procedure: Antidepressants effect dose-dependent inhibition of this hypotherma. The test substances are administered orally 60 minutes before the administration of reserpine.
# The dose which effects 50% inhibition of the reserpine-induced hypothermia is determined, as the ED 50%, from the linear regression between log dose (mg/kg) and relative reduction in hypothermia (Δ%).
# blood pressure = assay: Effect on the blood pressure: hypertensive action, pithed rat; type: in vivo, male Sprague-Dawley rats; conditions: for R.A. (relative activity), hypertensive action: amezinium = 1.00; for ED 20% hypertensive action (dose which increases the blood pressure of the pithed rat by 20%) / ED20: dose based on the base; for ED20: Rattus norvegicus, read-out: ED 20% hypertensive action (dose which increases the blood pressure of the pithed rat by 20%)
# Procedure: The measurement of the blood pressure in the carotid artery was carried out by means of Statham transducers. The substance was administered in the jugular vein (as an aqueous solution, 1 ml/kg) or intraperitoneally (as a tragacanth suspension, 2 ml/kg). The ED 20% is determined as the dose which increases the blood pressure by 20%.
# [2] = system: reserpine-induced hypothermia / blood pressure; assay: Quotient ED 50% antidepressive action / ED 20% hypertensive action; type: in vivo, mouse / rat; conditions: for Q Increase: Table 2, route of hypertensive test not given; for antidepressive and hypertensive action (in words): in vivo; for factor by which the hypertensive dose (ED 20%) is smaller than the antidepressive effective dose (ED 50%): compounds of Table 2;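 as to Q Increase: larger quotient means more selective hypertensive action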
# From the text: This is evident from the fact that the quotient defined above differs wtih respect to the comparative compounds. […] This arises, inter alia, from the fact that the hypertensive ED 20 constitutes the denominator of the quotient. It is possible that the unforeseeable selective direction of action is attributable to the special substitution,in accordance with the invention, at the 4-imino group.
# [3] = Table 1, oral administration 60 min before reserpine
# [4] = ip, Table 1, i.p. administration
# [5] = iv, Table 1, i.v. administration
Structure (SMILES),"R.A. (relative activity), reserpine antagonism ([1]; Table 1)","R.A. (relative activity), reserpine antagonism ([1]; Table 2)","R.A. (relative activity), hypertensive action (blood pressure; Table 1, i.p. administration)","R.A. (relative activity), hypertensive action (blood pressure; Table 1, i.v. administration)","R.A. (relative activity), hypertensive action (blood pressure; Table 2)",Q Increase [2],Q (quotient ED 50% antidepressive action/ED 20% hypertensive action) ([2]; hypertensive test i.p.),Q (quotient ED 50% antidepressive action/ED 20% hypertensive action) ([2]; hypertensive test i.v.),"ED50 [1, 3] [mg/kg]",ED20 (blood pressure; [4]) [mg/kg],ED20 (blood pressure; [5]) [mg/kg],"ED20 (blood pressure; Table 2, route not given) [mg/kg]","ED50 ([1]; Table 2, oral administration) [mg/kg]",further results
"Nc1cc[n+](-c2ccccc2)nc1.[O-][Cl+3]([O-])([O-])[O-] [1-phenyl-4-amino-pyridazinium perchlorate, reference compound]",1.83,1.83,1.48,2.78,2.78,22.22,1.60,22.22,–,–,–,–,–,"ED 50% (dose which inhibits the reserpine-induced hypothermia of the mouse by 50%) [1, 3]: 0.40 mg/kg; ED 50% (dose which inhibits the reserpine-induced hypothermia of the mouse by 50%) ([1]; Table 2, oral administration): 0.40 mg/kg; ED 20% hypertensive action (dose which increases the blood pressure of the pithed rat by 20%) (blood pressure; Table 1, i.p. administration): 0.25 mg/kg; ED 20% hypertensive action (dose which increases the blood pressure of the pithed rat by 20%) (blood pressure; Table 1, i.v. administration): 0.018 mg/kg; ED 20% hypertensive action (dose which increases the blood pressure of the pithed rat by 20%) (blood pressure; Table 2, route not given): 0.018 mg/kg; Q (quotient ED 50% antidepressive action/ED 20% hypertensive action) ([2]; hypertensive test i.p., listed as Example 1 of German Laid-Open Application DOS No. 2,245,248): 1.6; Q (quotient ED 50% antidepressive action/ED 20% hypertensive action) ([2]; hypertensive test i.v., listed as Example 1 of German Laid-Open Application DOS No. 2,245,248): 22.2; antidepressive and hypertensive action (in words) [2]: have an antidepressive and hypertensive action"
"COc1cc(N)cn[n+]1-c1ccccc1 [Amezinium, 1-phenyl-4-amino-6-methoxypyridazinium methosulfate, reference compound]",1.00,1.00,1.00,1.00,1.00,14.66,1.98,14.66,0.733,0.37,0.05,0.05,–,"factor by which the hypertensive dose (ED 20%) is smaller than the antidepressive effective dose (ED 50%) [2]: 15; Q (quotient ED 50% antidepressive action/ED 20% hypertensive action) ([2]; hypertensive test i.v., listed as amezinium): 14.7; antidepressive and hypertensive action (in words) [2]: have an antidepressive and hypertensive action"
"CC(=O)N=c1ccn(-c2ccccc2)nc1 [Example 1, 4-acetylimino-1,4-dihydro-1-phenylpyridazine hydrochloride]",1.09,–,–,0.16,–,–,–,2.09,0.67,–,0.32,–,–,–
"CCC(=O)N=c1ccn(-c2ccccc2)nc1 [Example 3, 1,4-dihydro-1-phenyl-4-(propionylimino)-pyridazine hydrochloride]",2.22,–,–,0.25,–,–,–,1.65,0.33,–,0.2,–,–,–
"CC(C)C(=O)N=c1ccn(-c2ccccc2)nc1 [Example 5, 1,4-dihydro-4-isobutyrylimino-1-phenylpyridazine hydrochloride]",1.83,–,–,0.23,–,–,–,1.82,0.4,–,0.215,–,–,–
"CCCCCCCC(=O)N=c1ccn(-c2ccccc2)nc1 [Example 8, 1,4-dihydro-4-octanoylimino-1-phenylpyridazine hydrochloride]",–,0.14,–,–,0.91,95.09,–,–,–,–,–,0.055,5.23,–
"O=C(Cc1ccccc1)N=c1ccn(-c2ccccc2)nc1 [Example 9, 1,4-dihydro-1-phenyl-4-[(phenylacetyl)-imino]-pyridazine hydrochloride]",–,0.18,–,–,0.79,63.17,–,–,–,–,–,0.063,3.98,–
"O=C(N=c1ccn(-c2ccccc2)nc1)C1CC1 [Example 10, 4-(cyclopropylcarbonyl)-imino-1,4-dihydro-1-phenylpyridazine hydrochloride]",0.52,–,–,0.11,–,–,–,3.04,1.41,–,0.464,–,–,–
"O=C(N=c1ccn(-c2ccccc2)nc1)C1CCC1 [Example 11, 4-(cyclobutylcarbonyl)-imino-1,4-dihydro-1-phenylpyridazine hydrochloride]",–,0.12,–,–,0.65,79.09,–,–,–,–,–,0.077,6.09,–
"C=C(C)C(=O)N=c1ccn(-c2ccccc2)nc1 [Example 12, 1,4-dihydro-4-methacryloylimino-1-phenylpyridazine]",–,0.98,–,–,2.27,34.09,–,–,–,–,–,0.022,0.75,–
"O=C(N=c1ccn(-c2ccccc2)nc1)c1ccc(F)cc1 [Example 14, 1,4-dihydro-4-(4-fluorobenzoyl)-imino-1-phenylpyridazine hydrochloride]",–,0.73,–,–,1.19,23.81,–,–,–,–,–,0.042,1,factor by which the hypertensive dose (ED 20%) is smaller than the antidepressive effective dose (ED 50%) [2]: 24
"O=C(N=c1ccn(-c2ccccc2)nc1)c1cc(Cl)cc(Cl)c1 [Example 15, 4-(3,5-dichlorobenzoyl)-imino-1,4-dihydro-1-phenylpyridazine]",0.27,–,< 0.04,–,–,–,< 0.27,–,2.7,> 10,–,–,–,–
"O=C(N=c1ccn(-c2ccccc2)nc1)c1ccccc1 [Example 16, 4-benzoylimino-1,4-dihydro-1-phenylpyridazine]",–,0.55,–,–,1.09,28.91,–,–,–,–,–,0.046,1.33,–
O=C(N=c1ccn(-c2ccccc2)nc1)c1ccccc1Cl [Example 17],–,0.27,–,–,1.09,60.00,–,–,–,–,–,0.046,2.76,–
O=C(N=c1ccn(-c2ccccc2)nc1)c1ccc(Cl)cc1 [Example 19],0.54,–,< 0.04,–,–,–,< 0.14,–,1.35,> 10,–,–,–,–
O=C(N=c1ccn(-c2ccccc2)nc1)c1ccc(Cl)cc1Cl [Example 20],0.67,–,< 0.04,–,–,–,< 0.11,–,1.1,> 10,–,–,–,–
O=C(N=c1ccn(-c2ccccc2)nc1)c1ccc(Cl)c(Cl)c1 [Example 22],0.24,–,0.08,–,–,–,0.67,–,3.1,4.64,–,–,–,–
Cc1cccc(C(=O)N=c2ccn(-c3ccccc3)nc2)c1 [Example 23],0.74,–,0.37,–,–,–,0.98,–,0.98,1,–,–,–,–
O=C(N=c1ccn(-c2ccccc2)nc1)c1cccc(C(F)(F)F)c1 [Example 26],0.22,–,0.08,–,–,–,0.70,–,3.26,4.64,–,–,–,–
CC1(C(=O)N=c2ccn(-c3ccccc3)nc2)CCCCC1 [Example 28],1.26,–,–,0.50,–,–,–,5.80,0.58,–,0.1,–,–,–
"CCOC(=O)N=c1ccn(-c2ccccc2)nc1 [Example 29, 1,4-dihydro-4-(ethoxycarbonyl)-imino-1-phenylpyridazine hydrochloride]",0.85,–,–,0.23,–,–,–,4.00,0.86,–,0.215,–,–,–
"COC(=O)[C@H]1[C@H]2C[C@@H]3c4[nH]c5cc(OC)ccc5c4CCN3C[C@H]2C[C@@H](OC(=O)c2cc(OC)c(OC)c(OC)c2)[C@@H]1OC [Reserpine, reference compound]",–,–,–,–,–,–,–,–,–,–,–,–,–,"reduction of body temperature ([1]; 2.15 mg/kg s.c., 2 hours after administration, ambient 20° to 22° C., average): 3 °C"
